Structures can show the parent of a compound that is named as a salt.
Row | Compound | melting point [°C]
1 | O=C(C=Cc1cccnc1)NCC1CN(C(c2ccccc2)c2ccccc2)C1 [Substance 2, N-(1-Diphenylmethylazetidin-3-ylmethyl)-3-(pyridin-3-yl)-acrylamide] | 72 to 74
2 | O=C(C=Cc1cccnc1)NCCCOC1CCN(Cc2ccccc2)CC1 [Substance 55, N-[3-(1-Benzylpiperidine-4-yloxy)-propyl]-3-(pyridin-3-yl)-acrylamide] | 100 to 102
3 | O=C(C=Cc1cccnc1)NCCC1CCN(C(c2ccccc2)c2ccccc2)CC1 [Substance 95, N-[2-(1-Diphenylmethylpiperidin-4-yl)-ethyl]-3-(pyridin-3-yl)-acrylamide] | 141 to 143
4 | O=C(CCc1cccnc1)NCCCC1CCN(C(c2ccccc2)c2ccccc2)CC1 [Substance 96, N-[3-(1-Diphenylmethylpiperidin-4-yl)-propyl]-3-(pyridin-3-yl)-propionamide] | 109 to 110
5 | CCN(CCCCC1CCN(C(c2ccccc2)c2ccccc2)CC1)C(=O)/C=C/c1cccnc1 [Substance 123, N-[4-(1-Diphenylmethylpiperidin-4-yl)-butyl]-N-ethyl-3-(pyridin-3-yl)-acrylamide] | 115 to 117
6 | O=C(COc1cccnc1)NCCCCC1CCN(C(c2ccccc2)c2ccccc2)CC1 [Substance 129, N-[4-(1-Diphenylmethylpiperidin-4-yl)-butyl]-2-(pyridin-3-yloxy)-acetamide] | 103 to 105
7 | O=C(CCc1cccnc1)NCCCCCC1CCN(C(c2ccccc2)c2ccccc2)CC1 [Substance 142, N-[5-(1-Diphenylmethylpiperidin-4-yl)-pentyl]-3-(pyridin-3-yl)-propionamide] | 112 to 114
8 | O=C(CCc1cccnc1)NCCCCC1CCN(C2c3ccccc3COc3ccccc32)CC1 (stereo not drawn) [Substance 230, N-{4-[1-(6,11-Dihydrodibenzo[b,e]-oxepin-11-yl)-piperidine-4-yl]-butyl}-3-(pyridin-3-yl)-propionamide] | 110 to 112
9 | O=C(C=Cc1cccnc1)NCCCCC1CCN(C(=O)c2cccc3c2-c2ccccc2C3=O)CC1 [Substance 277, N-{4-[1-(9-oxo-9H-Fluorene-4-carbonyl)-piperidine-4-yl]-butyl}-3-(pyridin-3-yl)-acrylamide] | 80 to 82

Next, values leading:

Row | melting point [°C] | Compound
10 | 178 to 188 | Cl.Cl.O=C(C=Cc1cccnc1)NCCCCC1CCNCC1
11 | 156 | O=C(C=Cc1cccnc1)NCCCCC1CCN(C(c2ccccc2)c2ccccc2)CC1 (as salt: methanesulfonate) [Substance 104, N-[4-(1-Diphenylmethylpiperidin-4-yl)-butyl]-3-(pyridin-3-yl)-acrylamide]
12 | 88 to 90 | O=C(C=Cc1cccnc1)NCCCCC1CCN(Cc2ccccc2)CC1 [Substance 46, N-[4-(1-Benzylpiperidin-4-yl)-butyl]-3-(pyridin-3-yl)-acrylamide]
13 | 164 to 166 | O=C(C=CC=Cc1cccnc1)NCCCCC1CCN(C(c2ccccc2)c2ccccc2)CC1 [Substance 132, N-[4-(1-Diphenylmethylpiperidine-4-yl)-butyl]-5-(pyridin-3-yl)-2,4-pentadienoic Acid Amide]
14 | 108 | O=C(C=Cc1cccnc1)NCCCCC1CCN(C(c2ccc(F)cc2)c2ccc(F)cc2)CC1 [Substance 171, N-(4-{1-[bis-(4-Fluorophenyl)-methyl]-piperidin-4-yl}-butyl)-3-(pyridin-3-yl)-acrylamide]
15 | 103 to 105 | O=C(CCc1cccnc1)NCCCCC1CCN(S(=O)(=O)c2ccc3ccccc3c2)CC1 [Substance 337, N-{4-[1-(2-Naphthylsulfonyl)-piperidin-4-yl]-butyl}-3-(pyridin-3-yl)-propionamide]
